Laboratory results from ChEMBL document CHEMBL1126299, “Synthesis and structure-activity relationships of cephalosporins with C-3' catechol-containing residues” (J Med Chem, 1992).
Converted amounts (≈) assume the structure as drawn.

Experiments:
Citrobacter freundii [1] = test: microbe, parasite or virus in culture
Description: Minimum inhibitory concentration in Citrobacter freundii, DR 382031 constitutive depressed type 1

[2] = The compound was tested for % urinary recovery in marmosets at the dose of 3 mg/kg; assay type: ADME, organism-based; design: dose 3 mg/kg; settings: callithrix, urine, read-out: Recovery
Citrobacter freundii [3] = test: microbe, parasite or virus in culture; remark: listed apart in the source
Description: Minimum inhibitory concentration in Citrobacter freundii, I+382010 inducible type 1 lactamase producer

Providencia stuartii [4] = test: microbe, parasite or virus in culture
Description: Minimum inhibitory concentration in Pseudomonas stuartii, I+442019 inducible type 1 lactamase producer

Enterobacter cloacae [5] = test: microbe, parasite or virus in culture
Description: Minimum inhibitory concentration in Enterobacter cloacae, P99+ constitutive depressed type 1 lactamase producer

Homo sapiens = species on record: Homo sapiens; test: Compound is evaluated for serum protein binding in human blood (protein binding in marmoset blood); assay type: functional
Enterobacter cloacae [6] = test: microbe, parasite or virus in culture; remark: listed apart in the source
Description: Minimum inhibitory concentration in Enterobacter cloacae, P99- inducible type 1 lactamase producer

Providencia stuartii [7] = test: microbe, parasite or virus in culture; remark: listed apart in the source
Description: Minimum inhibitory concentration in Pseudomonas stuartii, DR 442049 constitutive depressed type 1 lactamase producer

Enterobacter cloacae [8] = test: The compound was tested for minimum inhibitory concentration in Enterobacter cloacae, DR 401108 constitutive depressed type 1 lactamase producer; assay type: functional
Pseudomonas aeruginosa [9] = test: microbe, parasite or virus in culture
Description: Minimum inhibitory concentration in Pseudomonas aeruginosa,799/61 permeability mutant

Pseudomonas aeruginosa [10] = test: microbe, parasite or virus in culture; remark: listed apart in the source
Description: Minimum inhibitory concentration in Pseudomonas aeruginosa, 18S inducible type 1 lactamase producer

Pseudomonas aeruginosa [11] = test: microbe, parasite or virus in culture; remark: listed apart in the source
Description: Minimum inhibitory concentration in Pseudomonas aeruginosa, 18SH constitutive depressed type 1 lactamase producer

[12] = The compound was evaluated for area under the curve in marmosets; assay type: ADME; settings: callithrix, in vivo
Pseudomonas aeruginosa [13] = test: microbe, parasite or virus in culture; remark: listed apart in the source
Description: Minimum inhibitory concentration in Pseudomonas aeruginosa,799WT parent organism

Enterobacter cloacae [14] = test: microbe, parasite or virus in culture; remark: listed apart in the source
Description: Minimum inhibitory concentration in Enterobacter cloacae, I+401029 inducible type 1 lactamase producer

[15] = molecular target: Beta-lactamase TEM (Escherichia coli) (UniProt P62593); test: The dissociation constant of compound was tested for beta-Lactamase stability
[16] = The half life period in marmosets; assay type: ADME; settings: callithrix, in vivo
Enterobacter cloacae [17] = test: microbe, parasite or virus in culture; remark: listed apart in the source
Description: Minimum inhibitory concentration in Enterobacter cloacae, DR 401108 constitutive depressed type 1 lactamase producer

Escherichia coli [18] = test: microbe, parasite or virus in culture
Description: In vitro minimum inhibitory concentration against Escherichia coli (DC2 permeability mutant).

Escherichia coli [19] = test: microbe, parasite or virus in culture; remark: listed apart in the source
Description: In vitro minimum inhibitory concentration against Escherichia coli (DC0 parent organism).

Pseudomonas aeruginosa [20] = test: microbe, parasite or virus in culture; remark: listed apart in the source
Description: In vitro minimum inhibitory concentration against Pseudomonas aeruginosa (PU21).

Staphylococcus aureus [21] = test: The compound was tested for minimum inhibitory concentration in Staphylococcus aureus,147N penicillin sensitive Staphylococcus aureus; assay type: functional
Staphylococcus aureus [22] = test: The compound was tested for minimum inhibitory concentration in Staphylococcus aureus Oxford penicillin sensitive Staphylococcus aureus; assay type: functional
Citrobacter freundii [23] = test: The compound was tested for minimum inhibitory concentration in Citrobacter freundii, DR 382031 constitutive depressed type 1; assay type: functional
Pseudomonas aeruginosa [24] = test: The compound was tested for minimum inhibitory concentration in Pseudomonas aeruginosa,799/61 permeability mutant; assay type: functional
Providencia stuartii [25] = test: The compound was tested for minimum inhibitory concentration in Pseudomonas stuartii,I+442019 inducible type 1 lactamase producer; assay type: functional
Pseudomonas aeruginosa [26] = test: The compound was tested for minimum inhibitory concentration in Pseudomonas aeruginosa,799WT parent organism; assay type: functional
Citrobacter freundii [27] = test: The compound was tested for minimum inhibitory concentration in Citrobacter freundii,I+382010 inducible type 1 lactamase producer; assay type: functional
Enterobacter cloacae [28] = test: The compound was tested for minimum inhibitory concentration in Enterobacter cloacae,I+401029 inducible type 1 lactamase producer; assay type: functional
Pseudomonas aeruginosa [29] = test: The compound was tested for minimum inhibitory concentration in Pseudomonas aeruginosa,18S inducible type 1 lactamase producer; assay type: functional
Enterobacter cloacae [30] = test: The compound was tested for minimum inhibitory concentration in Enterobacter cloacae,P99- inducible type 1 lactamase producer; assay type: functional
Citrobacter freundii [31] = test: The compound was tested for minimum inhibitory concentration in Citrobacter freundii, I+382010 inducible type 1 lactamase producer; assay type: functional

Chain of Beta-lactamase TEM (Escherichia coli) (P62593 whole entry): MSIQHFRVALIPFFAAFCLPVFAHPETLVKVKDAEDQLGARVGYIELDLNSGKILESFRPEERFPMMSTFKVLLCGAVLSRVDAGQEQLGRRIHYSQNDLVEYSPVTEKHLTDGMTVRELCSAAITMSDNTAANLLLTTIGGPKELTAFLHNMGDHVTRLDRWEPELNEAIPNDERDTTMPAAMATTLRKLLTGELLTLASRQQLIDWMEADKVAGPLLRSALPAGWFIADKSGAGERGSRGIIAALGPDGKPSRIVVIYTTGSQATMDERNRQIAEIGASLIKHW

SMILES	MIC (Citrobacter freundii [1])	MIC (Citrobacter freundii [3])	MIC (Providencia stuartii [4])	MIC (Enterobacter cloacae [5])	MIC (Enterobacter cloacae [6])	MIC (Providencia stuartii [7])	MIC (Pseudomonas aeruginosa [9])	MIC (Pseudomonas aeruginosa [10])	MIC (Pseudomonas aeruginosa [11])	MIC (Pseudomonas aeruginosa [13])	MIC (Enterobacter cloacae [14])	MIC (Enterobacter cloacae [17])	MIC (Pseudomonas aeruginosa [20])	MIC (Citrobacter freundii [23])	MIC (Pseudomonas aeruginosa [24])	further results
CC(C)(O/N=C(\C(=O)N[C@@H]1C(=O)N2C(C(=O)O)=C(CNC(=O)c3cc(Cl)c(O)c(O)c3Cl)CSC12)c1csc(N)n1)C(=O)O (some centres undefined)	2 µg/mL (≈ 2.9 µM)	8 ng/mL (≈ 0.0116 µM)	0.06 µg/mL (≈ 0.087 µM)	4 µg/mL (≈ 5.8 µM)	0.03 µg/mL (≈ 0.0435 µM)	1 µg/mL (≈ 1.45 µM)	8 ng/mL (≈ 0.0116 µM)	8 ng/mL (≈ 0.0116 µM)	0.015 µg/mL (≈ 0.0218 µM)	8 ng/mL (≈ 0.0116 µM)	0.008 µg/mL (≈ 0.0116 µM)	–	–	–	–	dose excreted [2]: 16.2%; Activity (Homo sapiens): 98.7%; MIC (Enterobacter cloacae [8]): 4 µg/mL (≈ 5.8 µM); AUC [12]: 461 mg/h/L; pKa [15]: 6.3; half-life [16]: 493 min
CC(C)(O/N=C(\C(=O)N[C@@H]1C(=O)N2C(C(=O)O)=C(CCOC(=O)c3cc(O)c(O)c(Br)c3)CSC12)c1csc(N)n1)C(=O)O (some centres undefined)	4 µg/mL (≈ 5.6 µM)	8 ng/mL (≈ 0.0112 µM)	0.03 µg/mL (≈ 0.042 µM)	2 µg/mL (≈ 2.8 µM)	0.03 µg/mL (≈ 0.042 µM)	2 µg/mL (≈ 2.8 µM)	8 ng/mL (≈ 0.0112 µM)	8 ng/mL (≈ 0.0112 µM)	0.03 µg/mL (≈ 0.042 µM)	8 ng/mL (≈ 0.0112 µM)	0.03 µg/mL (≈ 0.042 µM)	> 128 µg/mL	8 ng/mL (≈ 0.0112 µM)	–	–	MIC (Escherichia coli [18]): 8 ng/mL (≈ 0.0112 µM); MIC (Escherichia coli [19]): 8 ng/mL (≈ 0.0112 µM); pKa (physchem): 6.5; MIC (Staphylococcus aureus [21]): 8 µg/mL (≈ 11.2 µM); MIC (Staphylococcus aureus [22]): 8 µg/mL (≈ 11.2 µM); AUC [12]: 67.7 mg/h/L; half-life [16]: 101 min
CC(C)(O/N=C(\C(=O)N[C@@H]1C(=O)N2C(C(=O)O)=C(CCNC(=O)c3cc(O)c(O)c(Br)c3)CSC12)c1csc(N)n1)C(=O)O (some centres undefined)	–	8 ng/mL (≈ 0.0112 µM)	0.25 µg/mL (≈ 0.35 µM)	2 µg/mL (≈ 2.8 µM)	0.03 µg/mL (≈ 0.042 µM)	4 µg/mL (≈ 5.61 µM)	8 ng/mL (≈ 0.0112 µM)	8 ng/mL (≈ 0.0112 µM)	0.015 µg/mL (≈ 0.021 µM)	8 ng/mL (≈ 0.0112 µM)	0.015 µg/mL (≈ 0.021 µM)	8 µg/mL (≈ 11.2 µM)	8 ng/mL (≈ 0.0112 µM)	1 µg/mL (≈ 1.4 µM)	–	dose excreted [2]: 17.5%; MIC (Escherichia coli [18]): 8 ng/mL (≈ 0.0112 µM); Activity (Homo sapiens): 99%; MIC (Escherichia coli [19]): 8 ng/mL (≈ 0.0112 µM); MIC (Staphylococcus aureus [21]): 16 µg/mL (≈ 22.4 µM); MIC (Staphylococcus aureus [22]): 16 µg/mL (≈ 22.4 µM)
CC(C)(O/N=C(\C(=O)N[C@@H]1C(=O)N2C(C(=O)O)=C(CNC(=O)c3cnc4cc(O)c(O)cc4c3O)CSC12)c1csc(N)n1)C(=O)O (some centres undefined)	–	–	–	0.06 µg/mL (≈ 0.0873 µM)	0.03 µg/mL (≈ 0.0436 µM)	2 µg/mL (≈ 2.91 µM)	–	8 ng/mL (≈ 0.0116 µM)	0.008 µg/mL (≈ 0.0116 µM)	–	–	1 µg/mL (≈ 1.45 µM)	–	0.125 µg/mL (≈ 0.182 µM)	8 ng/mL (≈ 0.0116 µM)	MIC (Providencia stuartii [25]): 0.03 µg/mL (≈ 0.0436 µM); MIC (Pseudomonas aeruginosa [26]): 8 ng/mL (≈ 0.0116 µM); MIC (Citrobacter freundii [27]): 8 ng/mL (≈ 0.0116 µM); MIC (Enterobacter cloacae [28]): 0.03 µg/mL (≈ 0.0436 µM)
CC(C)(O/N=C(\C(=O)N[C@@H]1C(=O)N2C(C(=O)O)=C(CNS(=O)(=O)c3ccc(O)c(O)c3)CSC12)c1csc(N)n1)C(=O)O (some centres undefined)	2 µg/mL (≈ 3.05 µM)	15 ng/mL (≈ 0.0228 µM)	0.5 µg/mL (≈ 0.761 µM)	2 µg/mL (≈ 3.05 µM)	0.125 µg/mL (≈ 0.19 µM)	8 µg/mL (≈ 12.2 µM)	–	15 ng/mL (≈ 0.0228 µM)	0.125 µg/mL (≈ 0.19 µM)	8 ng/mL (≈ 0.0122 µM)	0.03 µg/mL (≈ 0.0457 µM)	2 µg/mL (≈ 3.05 µM)	–	–	8 ng/mL (≈ 0.0122 µM)	pKa (physchem): 8
CC(C)(O/N=C(\C(=O)N[C@@H]1C(=O)N2C(C(=O)O)=C(CNC(=O)c3cc(O)c4cc(O)c(O)cc4n3)CSC12)c1csc(N)n1)C(=O)O (some centres undefined)	–	–	0.008 µg/mL (≈ 0.0116 µM)	16 µg/mL (≈ 23.3 µM)	0.06 µg/mL (≈ 0.0873 µM)	16 µg/mL (≈ 23.3 µM)	–	8 ng/mL (≈ 0.0116 µM)	0.125 µg/mL (≈ 0.182 µM)	–	0.5 µg/mL (≈ 0.727 µM)	4 µg/mL (≈ 5.82 µM)	2000 ng/mL (≈ 2.91 µM)	–	60 ng/mL (≈ 0.0873 µM)	MIC (Pseudomonas aeruginosa [26]): 8 ng/mL (≈ 0.0116 µM)
CC(C)(O/N=C(\C(=O)N[C@@H]1C(=O)N2C(C(=O)O)=C(CNC(=O)c3ccc4cc(O)c(O)cc4c3)CSC12)c1csc(N)n1)C(=O)O (some centres undefined)	–	–	–	16 µg/mL (≈ 23.9 µM)	–	8 µg/mL (≈ 11.9 µM)	8 ng/mL (≈ 0.0119 µM)	–	0.125 µg/mL (≈ 0.186 µM)	30 ng/mL (≈ 0.0447 µM)	–	> 128 µg/mL	–	16 µg/mL (≈ 23.9 µM)	–	MIC (Pseudomonas aeruginosa [29]): 8 ng/mL (≈ 0.0119 µM); MIC (Enterobacter cloacae [30]): 0.125 µg/mL (≈ 0.186 µM); MIC (Providencia stuartii [25]): 0.25 µg/mL (≈ 0.373 µM); MIC (Citrobacter freundii [31]): 8 ng/mL (≈ 0.0119 µM); MIC (Enterobacter cloacae [28]): 0.125 µg/mL (≈ 0.186 µM)
